“Also recorded” adds a separate entry of the source.
Experiments:
Format in all cases: binding, SARS-CoV-2
H145A = test system: H145A
R149A = test system: R149A
NTD mutants = test system: NTD mutants
R88A = test system: R88A

Molecule | Mutations SPR (% Inhibition/NTD wt) (H145A) | Mutations SPR (% Inhibition/NTD wt) (R149A) | effect of NTD mutations on SPR signal, in words (NTD mutants) | Mutations SPR (% Inhibition/NTD wt) (R88A)
Dihydrofolate [DHF] | H145 (96%), R149 (83%) | H145 (96%), R149 (83%) | Mutations H145A and R149A strongly reduced the signal; also recorded: strong effects of the mutations R92A, Y111A and R88A | 
COc1ccc2cc([C@H](C)C(=O)O)ccc2c1 [Naproxen, naproxen] |  | R88 (55%), R149 (44%) |  | R88 (55%), R149 (44%)
RPKPQQF-OH [Substance P (1-7), Substance P (1-7) RPKPQQF-OH] |  |  | relatively small effects of the mutations with notable exceptions of W52A and Y111A | 

— PMC9698730 (Molecules, 2022)
